Measured values as given in ChEMBL document CHEMBL4368860, “Structure activity relationship of 2-arylalkynyl-adenine derivatives as human A3 adenosine receptor antagonists” (Medchemcomm, 2018).

What was measured:
[1] = molecular target: Sodium-dependent noradrenaline transporter (Homo sapiens, UniProt P23975); test: Displacement of [3H]Nisoxetine from human NET expressed in HEK cells by radioligand binding assay; assay type: cell-based
Adenosine receptor A3 [2] = molecular target: Adenosine receptor A3 (Mus musculus, UniProt Q61618); test: Displacement of [125I]I-AB-MECA from recombinant mouse adenosine A3 receptor expressed in HEK293 cell membranes
[3] = molecular target: T1, Adenosine receptor A1 (Homo sapiens) (UniProt P30542); test: Displacement of [3H]DPCPX from recombinant human A1 receptor expressed in CHO cell membranes at 10 uM
T1 sequence (whole entry): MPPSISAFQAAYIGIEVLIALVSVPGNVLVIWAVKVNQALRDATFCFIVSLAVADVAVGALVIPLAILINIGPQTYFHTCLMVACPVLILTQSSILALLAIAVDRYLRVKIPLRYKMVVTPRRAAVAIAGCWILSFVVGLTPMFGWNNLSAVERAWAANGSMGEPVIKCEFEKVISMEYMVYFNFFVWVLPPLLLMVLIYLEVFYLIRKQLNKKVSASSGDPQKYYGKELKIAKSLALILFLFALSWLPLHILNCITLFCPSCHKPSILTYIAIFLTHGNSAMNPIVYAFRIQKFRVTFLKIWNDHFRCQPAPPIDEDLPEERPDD

[4] = molecular target: Sigma intracellular receptor 2 (Homo sapiens, UniProt Q5BJF2); test: Displacement of [3H]-DTG from human sigma 2 receptor
Adenosine receptor A2a [5] = molecular target: Adenosine receptor A2a (Homo sapiens, UniProt P29274); test: Displacement of [3H]ZM241385 from human A2A receptor expressed in HEK293 cell membranes at 10 uM; conditions: HEK293 cell membranes expressing human A2A receptor, probe [3H]ZM241385
Adenosine receptor A2a [6] = molecular target: Adenosine receptor A2a (Mus musculus, UniProt Q60613); test: Displacement of [3H]ZM241385 from mouse A2A receptor at 10 uM; conditions: probe [3H]ZM241385
Adenosine receptor A3 [7] = molecular target: T2, Adenosine receptor A3 (Homo sapiens, UniProt P0DMS8); test: Displacement of [125I]I-AB-MECA from recombinant human adenosine A3 receptor expressed in CHO cell membranes
T2 sequence (P0DMS8 whole entry): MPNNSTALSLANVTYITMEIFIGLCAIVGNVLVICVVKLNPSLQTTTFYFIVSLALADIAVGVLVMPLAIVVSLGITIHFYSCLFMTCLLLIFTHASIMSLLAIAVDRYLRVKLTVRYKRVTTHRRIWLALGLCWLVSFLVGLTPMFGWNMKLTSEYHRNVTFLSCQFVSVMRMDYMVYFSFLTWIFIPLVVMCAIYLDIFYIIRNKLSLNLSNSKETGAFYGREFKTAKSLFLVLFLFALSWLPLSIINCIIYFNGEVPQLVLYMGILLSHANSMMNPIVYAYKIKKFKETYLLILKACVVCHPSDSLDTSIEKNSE

[8] = molecular target: Adenosine receptor A1 (Mus musculus) (UniProt Q60612); test: Displacement of [3H]DPCPX from mouse A1 receptor at 10 uM
Homo sapiens = species: Homo sapiens; test: Selectivity ratio of Ki for displacement of [125I]I-AB-MECA from recombinant mouse adenosine A3 receptor expressed in HEK293 cell membranes to Ki for displacement of [125I]I-AB-MECA from recombinant human adenosine A3 receptor

Sequence of Adenosine receptor A1 (Mus musculus) (Q60612 whole entry): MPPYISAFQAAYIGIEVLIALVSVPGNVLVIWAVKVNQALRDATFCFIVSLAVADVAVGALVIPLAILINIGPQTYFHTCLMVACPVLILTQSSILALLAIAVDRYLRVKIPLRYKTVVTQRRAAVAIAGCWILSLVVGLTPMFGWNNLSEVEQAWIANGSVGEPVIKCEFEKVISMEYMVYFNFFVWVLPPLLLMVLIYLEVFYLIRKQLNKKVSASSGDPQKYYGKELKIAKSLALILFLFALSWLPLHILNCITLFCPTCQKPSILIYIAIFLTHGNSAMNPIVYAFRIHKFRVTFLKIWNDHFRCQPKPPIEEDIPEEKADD
Sequence of Adenosine receptor A2a (Mus musculus, UniProt Q60613) (Q60613 whole entry): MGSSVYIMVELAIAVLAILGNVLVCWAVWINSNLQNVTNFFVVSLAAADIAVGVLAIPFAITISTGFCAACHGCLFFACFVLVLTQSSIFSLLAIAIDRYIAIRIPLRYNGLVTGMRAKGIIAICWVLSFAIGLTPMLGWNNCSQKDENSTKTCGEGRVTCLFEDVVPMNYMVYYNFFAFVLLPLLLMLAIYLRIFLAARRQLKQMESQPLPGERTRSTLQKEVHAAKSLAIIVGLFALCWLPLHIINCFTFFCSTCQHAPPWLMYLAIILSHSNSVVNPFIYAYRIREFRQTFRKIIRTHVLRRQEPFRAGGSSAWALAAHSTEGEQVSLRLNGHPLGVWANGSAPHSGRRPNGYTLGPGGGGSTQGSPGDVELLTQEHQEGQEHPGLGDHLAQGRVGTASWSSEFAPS
Sequence of Sigma intracellular receptor 2 (Q5BJF2 whole entry): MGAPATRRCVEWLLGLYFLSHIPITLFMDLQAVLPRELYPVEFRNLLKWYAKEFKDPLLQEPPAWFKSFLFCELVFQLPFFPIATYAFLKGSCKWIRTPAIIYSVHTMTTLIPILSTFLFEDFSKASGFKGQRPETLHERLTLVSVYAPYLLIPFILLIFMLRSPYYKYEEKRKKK
Sequence of Adenosine receptor A2a (Homo sapiens, UniProt P29274) (P29274 whole entry): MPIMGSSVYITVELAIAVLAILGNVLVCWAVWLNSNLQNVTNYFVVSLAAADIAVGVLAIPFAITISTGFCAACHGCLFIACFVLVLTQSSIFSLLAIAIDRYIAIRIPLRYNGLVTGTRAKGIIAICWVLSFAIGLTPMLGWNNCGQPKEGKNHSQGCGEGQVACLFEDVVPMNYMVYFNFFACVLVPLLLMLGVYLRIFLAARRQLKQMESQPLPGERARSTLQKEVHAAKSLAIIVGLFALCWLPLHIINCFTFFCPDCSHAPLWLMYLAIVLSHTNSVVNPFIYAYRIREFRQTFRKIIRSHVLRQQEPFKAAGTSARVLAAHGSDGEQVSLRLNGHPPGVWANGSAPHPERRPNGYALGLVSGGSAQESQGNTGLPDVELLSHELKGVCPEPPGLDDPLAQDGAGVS
Sequence of Sodium-dependent noradrenaline transporter (P23975 whole entry): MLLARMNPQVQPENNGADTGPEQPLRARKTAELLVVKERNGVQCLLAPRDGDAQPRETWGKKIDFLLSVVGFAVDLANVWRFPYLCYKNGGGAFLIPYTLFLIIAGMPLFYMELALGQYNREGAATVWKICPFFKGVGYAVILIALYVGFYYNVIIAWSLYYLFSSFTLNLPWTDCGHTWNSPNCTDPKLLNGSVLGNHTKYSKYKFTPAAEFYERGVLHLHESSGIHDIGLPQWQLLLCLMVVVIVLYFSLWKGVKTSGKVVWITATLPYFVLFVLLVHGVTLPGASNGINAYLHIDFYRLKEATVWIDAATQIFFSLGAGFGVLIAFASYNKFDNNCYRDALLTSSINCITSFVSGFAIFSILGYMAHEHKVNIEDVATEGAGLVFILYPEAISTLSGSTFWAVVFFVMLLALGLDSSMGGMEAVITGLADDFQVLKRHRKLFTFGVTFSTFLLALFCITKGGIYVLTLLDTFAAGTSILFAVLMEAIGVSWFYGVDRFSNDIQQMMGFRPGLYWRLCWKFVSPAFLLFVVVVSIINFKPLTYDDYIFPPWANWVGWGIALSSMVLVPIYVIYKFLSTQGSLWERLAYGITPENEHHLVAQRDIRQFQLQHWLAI
Sequence of Adenosine receptor A3 (Mus musculus, UniProt Q61618) (Q61618 whole entry): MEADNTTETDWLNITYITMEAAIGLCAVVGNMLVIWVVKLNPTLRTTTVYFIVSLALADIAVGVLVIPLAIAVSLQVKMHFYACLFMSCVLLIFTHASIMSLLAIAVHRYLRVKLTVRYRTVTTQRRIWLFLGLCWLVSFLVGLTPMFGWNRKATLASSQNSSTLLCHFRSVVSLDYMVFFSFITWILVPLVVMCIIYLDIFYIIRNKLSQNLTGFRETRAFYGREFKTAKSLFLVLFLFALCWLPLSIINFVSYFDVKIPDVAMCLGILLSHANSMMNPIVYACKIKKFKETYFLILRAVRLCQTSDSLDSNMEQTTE

`C[C@@]12C[C@@H]1[C@@H](n1cnc3c(NCCc4ccccc4)nc(C#Cc4ccccc4)nc31)[C@H](O)[C@@H]2O` showed a Ki [1] of 2800 nM, a Ki (Adenosine receptor A3 [2]) of 480 nM and an inhibition [3] of 30%. It also gave a Ki [4] of 1300 nM, an inhibition at 10 µM (Adenosine receptor A2a [5]) of 22% and an inhibition at 10 µM (Adenosine receptor A2a [6]) of 13%. It also gave a Ki (Adenosine receptor A3 [7]) of 20 nM, an inhibition [8] of 39% and a Ratio Ki (Homo sapiens) of 24.
